Test results as given in ChEMBL document CHEMBL1146163 (Bioorg Med Chem Lett, 2006).
Activity calls are given as the source filed them. No cut-off for these calls is given here.

Legend:
[1] = target: T1, Peroxisome proliferator-activated receptor alpha (Homo sapiens) (UniProt Q07869); assay: Activity at human PPARalpha expressed in CV1 cells using GAL4 chimeric system relative to control; assay type: cell-based; details: CV-1
T1 sequence (whole entry): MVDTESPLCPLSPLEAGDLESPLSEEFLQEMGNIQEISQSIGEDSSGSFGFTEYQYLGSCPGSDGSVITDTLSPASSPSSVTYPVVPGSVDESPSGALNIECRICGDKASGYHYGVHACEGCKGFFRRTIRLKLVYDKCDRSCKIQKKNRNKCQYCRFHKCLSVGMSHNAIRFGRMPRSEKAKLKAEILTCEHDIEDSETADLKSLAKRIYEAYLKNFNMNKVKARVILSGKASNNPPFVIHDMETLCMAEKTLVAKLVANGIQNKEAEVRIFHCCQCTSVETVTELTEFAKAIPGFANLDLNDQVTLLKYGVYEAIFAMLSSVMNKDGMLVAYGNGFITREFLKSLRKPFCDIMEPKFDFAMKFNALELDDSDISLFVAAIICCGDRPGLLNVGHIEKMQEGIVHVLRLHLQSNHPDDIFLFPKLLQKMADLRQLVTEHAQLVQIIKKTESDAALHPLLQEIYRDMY

[2] = target: T2, Peroxisome proliferator-activated receptor alpha (Homo sapiens, UniProt Q07869); assay: (§1) Displacement of tritium labeled ligand from human PPARalpha by SPA assay
T2 sequence (Q07869 whole entry): T1 sequence (whole entry)

Mus musculus = assay: Reduction of glucose level in db/db mouse at 30 mg/kg, po after 7 days relative to control; assay type: functional; parameters: scale not given: the % may be the effect or the level left
Rattus norvegicus [3] = assay: Effect on glucose normalization in po dosed ZDF rat after 7 days; assay type: functional; details: 168 h, read-out: MED
[4] = Oral bioavailability in Beagle dog at 10 mg/kg, po; assay type: ADME, organism-based, Canis lupus familiaris; details: in vivo
[5] = Half life in Beagle dog at 1 mg/kg, iv; assay type: ADME, organism-based, Canis lupus familiaris; parameters: dose 1 mg/kg, route intravenous; details: in vivo
Rattus norvegicus [6] = assay: Reduction of plasma triglyceride level in ZDF rat at 1 mg/kg, po after 7 days relative to control; assay type: functional; details: 168 h
[7] = Oral bioavailability in F344 rat at 10 mg/kg, po; assay type: ADME, organism-based; details: in vivo
[8] = Half life in F344 rat at 1 mg/kg, iv; assay type: ADME, organism-based; parameters: dose 1 mg/kg, route intravenous; details: in vivo
[9] = Tmax in F344 rat at 10 mg/kg, po; assay type: ADME, organism-based; parameters: dose 10 mg/kg, route oral; details: in vivo
[10] = Tmax in Beagle dog at 10 mg/kg, po; assay type: ADME, organism-based, Canis lupus familiaris; parameters: dose 10 mg/kg, route oral; details: in vivo
[11] = Clearance in F344 rat at 1 mg/kg, iv; assay type: ADME, organism-based; parameters: dose 1 mg/kg, route intravenous; details: in vivo
[12] = Clearance in Beagle dog at 1 mg/kg, iv; assay type: ADME, organism-based, Canis lupus familiaris; parameters: dose 1 mg/kg, route intravenous; details: in vivo
[13] = Volume of distribution in Beagle dog at 1 mg/kg, iv; assay type: ADME, organism-based, Canis lupus familiaris; parameters: dose 1 mg/kg, route intravenous; details: in vivo, read-out: Vdss
[14] = Volume of distribution in F344 rat at 1 mg/kg, iv; assay type: ADME, organism-based; parameters: dose 1 mg/kg, route intravenous; details: in vivo, read-out: Vdss
[15] = target: T3, Peroxisome proliferator-activated receptor gamma (Homo sapiens, UniProt P37231)
T3 sequence (P37231 whole entry): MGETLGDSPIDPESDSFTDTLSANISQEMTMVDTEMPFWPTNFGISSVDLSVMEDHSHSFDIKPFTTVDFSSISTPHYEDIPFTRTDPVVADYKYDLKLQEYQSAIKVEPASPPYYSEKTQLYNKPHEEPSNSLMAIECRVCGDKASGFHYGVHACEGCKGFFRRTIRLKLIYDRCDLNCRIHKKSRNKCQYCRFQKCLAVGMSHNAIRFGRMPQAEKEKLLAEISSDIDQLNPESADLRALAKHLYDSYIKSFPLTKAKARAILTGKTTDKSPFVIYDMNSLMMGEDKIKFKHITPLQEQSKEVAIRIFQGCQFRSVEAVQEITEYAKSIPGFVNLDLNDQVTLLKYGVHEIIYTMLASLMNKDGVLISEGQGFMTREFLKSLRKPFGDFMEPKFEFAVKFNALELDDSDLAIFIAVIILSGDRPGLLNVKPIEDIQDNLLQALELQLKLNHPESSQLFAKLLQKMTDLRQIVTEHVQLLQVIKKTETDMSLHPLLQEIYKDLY
Description: Displacement of tritium labeled ligand from human PPARgamma by SPA assay

[16] = target: T4, Peroxisome proliferator-activated receptor delta (Homo sapiens) (UniProt Q03181); assay: Activity at human PPARdelta expressed in CV1 cells by cotransfection assay relative to control; assay type: cell-based; details: CV-1
T4 sequence (whole entry): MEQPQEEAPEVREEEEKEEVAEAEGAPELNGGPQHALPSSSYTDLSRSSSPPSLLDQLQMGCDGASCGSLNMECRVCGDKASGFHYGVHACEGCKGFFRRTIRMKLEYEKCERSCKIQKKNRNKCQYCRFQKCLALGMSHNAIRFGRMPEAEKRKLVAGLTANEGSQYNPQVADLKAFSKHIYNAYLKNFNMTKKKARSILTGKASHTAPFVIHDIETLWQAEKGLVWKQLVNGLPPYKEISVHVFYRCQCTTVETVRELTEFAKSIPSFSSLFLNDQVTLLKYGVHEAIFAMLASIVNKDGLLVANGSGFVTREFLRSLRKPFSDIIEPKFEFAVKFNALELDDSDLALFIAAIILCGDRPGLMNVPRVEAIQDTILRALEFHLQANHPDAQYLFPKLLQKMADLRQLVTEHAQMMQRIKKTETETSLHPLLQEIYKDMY

[17] = target: T1, Peroxisome proliferator-activated receptor alpha (Homo sapiens); assay: as §1
[18] = target: T5, Peroxisome proliferator-activated receptor delta (Homo sapiens, UniProt Q03181); assay: Activity at PPARdelta
T5 sequence (Q03181 whole entry): T4 sequence (whole entry)

Rattus norvegicus [19] = assay: Reduction of glucose level in ZDF rat at 1 mg/kg, po after 7 days relative to control; assay type: functional; parameters: scale not given: the % may be the effect or the level left

`CC(C)(Oc1ccc(C(=O)c2ccc(Cl)cc2)cc1)C(=O)O` [FENOFIBRIC ACID] gave an Efficacy [1] of 75%, an EC50 [2] greater than 10000 nM and an IC50 [2] greater than 10000 nM.

For `Cc1oc(-c2ccc(-c3ccccc3)cc2)nc1CCOc1ccc(CCC(=O)O)c(CNC(=O)OC(C)C)c1`, the Efficacy [1] was 52%.

Work on `CN(CCOc1ccc(CC2SC(=O)NC2=O)cc1)c1ccccn1` (stereo not drawn) [ROSIGLITAZONE] yielded an Activity (Mus musculus) of 29% and a minimal effective dose (Rattus norvegicus [3]) of 0.25 mg/kg.

With `CCCOC(=O)N1CCc2c(OCCc3nc(-c4ccc(-c5ccccc5)cc4)oc3C)ccc(CCC(=O)[O-])c2C1.[Na+]` the bioavailability [4] was 37%, the half-life [5] was 3.58 h and the ED50 (Rattus norvegicus [6]) was 0.24 mg/kg. It also gave an Activity (Mus musculus) of 41%, a bioavailability [7] of 35% and a half-life [8] of 5 h. It also gave a Tmax [9] of 1 h, a Tmax [10] of 4 h and a clearance [11] of 1.37 mL/min/kg. The clearance [12] was 1.24 mL/min/kg, the Vd [13] was 0.38 L/kg and the Vd [14] was 0.59 L/kg. The minimal effective dose (Rattus norvegicus [3]) was 0.19 mg/kg.

In the case of `Cc1oc(-c2ccc(-c3ccccc3)cc2)nc1CCOc1ccc(CCC(=O)O)c2c1CCN(C(=O)OCC(C)(C)C)C2` [listing 1 of 2 here], the EC50 [15] is reported as 9 nM and the IC50 [15] is reported as 33 nM.

In the case of `CCCOC(=O)N1CCc2c(OCCc3nc(-c4ccc(-c5ccccc5)cc4)oc3C)ccc(CCC(=O)O)c2C1` [listing 1 of 2 here], the Efficacy [16] is reported as 36%, the Efficacy [1] is reported as 27% and the Activity [17] is reported as “inactive”.

In the case of `CCCOC(=O)N1CCc2c(OCCc3nc(-c4ccccc4)oc3C)ccc(CCC(=O)[O-])c2C1.[Na+]`, the minimal effective dose (Rattus norvegicus [3]) is reported as 0.28 mg/kg.

With `Cc1c(C)c2c(c(C)c1O)CCC(C)(COc1ccc(CC3SC(=O)NC3=O)cc1)O2` (stereo not drawn) the Efficacy [1] was 0% and the Activity [17] was “inactive”.

Work on `CCCOC(=O)N1CCc2c(OCCc3nc(-c4ccc(-c5ccccc5)cc4)oc3C)ccc(CCC(=O)O)c2C1` [listing 2 of 2 here] yielded an EC50 [15] of 3 nM, an IC50 [15] of 21 nM and an EC50 [18] of 2750 nM. It also gave an EC50 [2] of 2390 nM.

In the case of `Cc1oc(-c2ccccc2)nc1CCOc1ccc(C[C@H](Nc2ccccc2C(=O)c2ccccc2)C(=O)O)cc1`, the Efficacy [1] is reported as 66%.

Work on `CCCOC(=O)N1CCc2c(OCCc3nc(-c4ccccc4)oc3C)ccc(CCC(=O)O)c2C1` [listing 1 of 2 here] yielded an EC50 [15] of 12 nM, an IC50 [15] of 11 nM and an Activity (Mus musculus) of 62%. For the same compound, the EC50 [2] was 561 nM and the IC50 [2] was 4680 nM.

`Cc1oc(-c2ccc(-c3ccccc3)cc2)nc1CCOc1ccc(CCC(=O)[O-])c2c1CCN(C(=O)OCC(C)(C)C)C2.[Na+]` showed an Activity (Rattus norvegicus [19]) of 23% and an Activity (Mus musculus) of 49%.

With `Cc1oc(-c2ccc(-c3ccccc3)cc2)nc1CCOc1ccc(CCC(=O)O)c2c1CCN(C(=O)OCC(C)(C)C)C2` [listing 2 of 2 here] the Efficacy [1] was 18%, the Activity [17] was “inactive” and the Efficacy [17] was less than 20%.

For `Cc1oc(-c2ccccc2)nc1CCOc1ccc(CCC(=O)O)c2c1CCN(C(=O)OCC(C)C)C2`, the EC50 [15] was 8 nM, the IC50 [15] was 17 nM and the Activity (Mus musculus) was 27%. The Efficacy [1] was 40%, the EC50 [2] was 1720 nM and the IC50 [2] was 3420 nM. The minimal effective dose (Rattus norvegicus [3]) was 0.25 mg/kg.

In the case of `C#CCOC(=O)N1CCc2c(OCCc3nc(-c4ccccc4)oc3C)ccc(CCC(=O)O)c2C1`, the EC50 [15] is reported as 77 nM, the IC50 [15] is reported as 24 nM and the Efficacy [16] is reported as 65%. For the same compound, the Activity (Mus musculus) was 37%, the EC50 [18] was 3020 nM and the Efficacy [1] was 38%. The EC50 [2] was 2780 nM and the IC50 [2] was 8400 nM.

With `CCCOC(=O)N1CCc2c(OCCc3nc(-c4ccccc4)oc3C)ccc(CCC(=O)O)c2C1` [listing 2 of 2 here] the Efficacy [1] was 47%.
